This is an account of results in patent US8791107B2, “N-substituted oxazinopteridines and oxazinopteridinones” (Takeda Pharmaceutical Company Limited, priority 2011, dated 2014).

Molecules are shown by their SMILES.

This assay deals with T1, PI3Kδ (Homo sapiens, UniProt O00329).
T1 construct: The protein is full length and co-expressed with untagged PIK3R1; GST; purchased Invitrogen PV5274
T1 sequence (O00329 whole entry): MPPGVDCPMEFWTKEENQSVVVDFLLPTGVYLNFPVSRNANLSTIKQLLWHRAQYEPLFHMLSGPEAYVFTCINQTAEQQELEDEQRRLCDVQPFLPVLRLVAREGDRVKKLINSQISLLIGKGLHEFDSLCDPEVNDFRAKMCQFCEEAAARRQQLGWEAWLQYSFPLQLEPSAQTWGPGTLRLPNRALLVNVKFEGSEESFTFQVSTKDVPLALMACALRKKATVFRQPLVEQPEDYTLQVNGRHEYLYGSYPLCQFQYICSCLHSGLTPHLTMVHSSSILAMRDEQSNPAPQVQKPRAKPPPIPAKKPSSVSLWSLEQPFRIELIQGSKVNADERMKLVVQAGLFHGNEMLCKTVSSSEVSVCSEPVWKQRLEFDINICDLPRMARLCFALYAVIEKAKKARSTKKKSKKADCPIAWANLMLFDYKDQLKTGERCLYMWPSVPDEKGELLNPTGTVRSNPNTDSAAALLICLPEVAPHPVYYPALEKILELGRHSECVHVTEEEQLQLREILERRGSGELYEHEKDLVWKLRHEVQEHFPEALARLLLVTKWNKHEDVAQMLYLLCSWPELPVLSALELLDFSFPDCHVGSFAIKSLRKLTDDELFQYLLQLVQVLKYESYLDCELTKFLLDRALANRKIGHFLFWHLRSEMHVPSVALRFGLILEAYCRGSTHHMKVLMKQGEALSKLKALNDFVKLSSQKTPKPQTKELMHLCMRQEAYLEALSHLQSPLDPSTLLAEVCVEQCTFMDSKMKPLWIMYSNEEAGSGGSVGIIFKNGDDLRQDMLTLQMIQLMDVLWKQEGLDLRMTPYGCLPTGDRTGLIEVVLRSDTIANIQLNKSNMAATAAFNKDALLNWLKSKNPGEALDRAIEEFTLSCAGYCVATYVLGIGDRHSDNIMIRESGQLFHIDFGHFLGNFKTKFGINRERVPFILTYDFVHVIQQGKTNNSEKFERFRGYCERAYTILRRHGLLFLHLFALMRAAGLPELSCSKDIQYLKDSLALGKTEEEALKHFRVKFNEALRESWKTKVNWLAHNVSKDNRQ
T1 sequence (P27986 whole entry partner): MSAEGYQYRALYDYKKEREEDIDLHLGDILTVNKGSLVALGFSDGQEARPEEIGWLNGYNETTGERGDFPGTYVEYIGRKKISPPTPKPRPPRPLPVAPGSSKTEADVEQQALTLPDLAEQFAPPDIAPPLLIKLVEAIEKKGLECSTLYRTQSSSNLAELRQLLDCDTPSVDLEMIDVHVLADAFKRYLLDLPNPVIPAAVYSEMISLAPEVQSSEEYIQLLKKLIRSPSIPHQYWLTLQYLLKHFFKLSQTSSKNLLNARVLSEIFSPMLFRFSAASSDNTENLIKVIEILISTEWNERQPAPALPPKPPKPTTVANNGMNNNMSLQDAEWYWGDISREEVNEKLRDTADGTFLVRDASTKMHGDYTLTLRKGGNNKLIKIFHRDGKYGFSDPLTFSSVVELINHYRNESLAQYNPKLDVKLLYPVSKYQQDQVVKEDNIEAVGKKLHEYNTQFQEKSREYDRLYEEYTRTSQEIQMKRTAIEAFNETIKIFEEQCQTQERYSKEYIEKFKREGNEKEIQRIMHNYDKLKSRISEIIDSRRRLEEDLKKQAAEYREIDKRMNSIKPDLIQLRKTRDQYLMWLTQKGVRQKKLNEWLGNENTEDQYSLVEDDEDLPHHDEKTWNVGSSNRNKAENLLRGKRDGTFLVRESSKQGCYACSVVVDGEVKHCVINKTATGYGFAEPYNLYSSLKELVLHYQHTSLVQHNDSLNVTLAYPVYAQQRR
In words: PI3Kδ inhibition, modified PIK3CD Adapta TR-FRET assay. The format is biochemical. The following applies: recombinant GST-tagged full length PIK3CD co-expressed with PIK3R1 (p85α); 2 μM ATP, 50 μM PIP2; read-out: PI3Kδ Inhibition (pIC50) (converted). Here is the method: The activity of compounds as PI3Kδ inhibitors may be determined by a variety of methods, including in vitro and in vivo methods. The following in vitro assay measures a test compound's ability to inhibit PI3Kδ-mediated phosphorylation of PIP2 and ATP.
Recombinant GST-tagged PIK3CD is purchased from Invitrogen (Part Number: PV5274). The protein is full length and co-expressed with untagged PIK3R1, phosphoinositide-3-kinase regulatory subunit 1 (p85α). The protein is stored at −20° C. in 50 mM TRIS (pH 7.5), 150 mM NaCl, 0.5 mM EDTA, 0.02% Triton® X-100, 2 mM DTT, and 50% glycerol.
A modified PIK3CD Adapta® assay (Invitrogen, Carlsbad, Calif.) is used to measure PI3Kδ inhibition of the example compounds. The assay has two phases. In the first phase, kinase reaction components, which include the enzyme (PIK3CD), substrates (PIP2, ATP), test compound (inhibitor), and assay buffer are added to each well, and the reaction is allowed to incubate for a pre-determined period of time. […] In the presence of the inhibitor, the amount of ADP formed by the kinase reaction is reduced, and the resulting intact antibody-tracer interaction maintains a high TR-FRET signal.
The reaction buffer contains 50 mM Hepes (pH 7.5), 3 mM MgCl2, 1 mM EGTA, 100 mM NaCl, 0.03% CHAPS; 2 mM DTT is added fresh prior to each experiment. […] Next, test compounds (2 μL) from a source plate (5% dilution plate) are introduced into the wells. The final DMSO concentration in each assay well is 1%. […] Other wells contain test compounds serially diluted across the plate 11 times for a total of 12 data points. The kinase reactions are carried out at room temperature and are initiated by the addition of 4 μL of solution containing 2 μM ATP and 50 μM PIP2. […] This emission signal is referenced or “ratioed” to the emission from Eu at 620 nm. […] The percent inhibition for a given inhibitor concentration is computed from % conversion for the reaction and for the positive and negative controls.
(TR-FRET usually uses a lanthanide donor and a delayed reading to cut background.)
As for `CS(=O)(=O)c1ccc(CN2CC3COCCN3c3nc(-c4cccc5[nH]ccc45)ncc32)cc1` (stereo not shown) [Example 19, 2-(1H-indol-4-yl)-5-(4-(methylsulfonyl)benzyl)-5,6,6a,7,9,10-hexahydro-[1,4]oxazino[3,4-h]pteridine], the IC50 is 10 nM.

For the compound `COc1ccc(CC(=O)N2CC3COCCN3c3nc(-c4cccc5[nH]ccc45)ncc32)cc1` (stereo not shown) [Example 20, 1-(2-(1H-indol-4-yl)-6a,7,9,10-tetrahydro-[1,4]oxazino[3,4-h]pteridin-5(6H)-yl)-2-(4-methoxyphenyl)ethanone], the IC50 was 501 nM. As for `CS(=O)(=O)c1ccc(CN2CC3COCCN3c3nc(-c4cccc5[nH]c(C(F)(F)F)cc45)ncc32)cc1` (stereo not shown) [Example 21, 5-(4-(methylsulfonyl)benzyl)-2-(2-(trifluoromethyl)-1H-indol-4-yl)-5,6,6a,7,9,10-hexahydro-[1,4]oxazino[3,4-h]pteridine], the IC50 was 1260 nM.

For the compound `CS(=O)(=O)c1ccc(CN2CC3COCCN3c3nc(-c4cccc5[nH]ncc45)ncc32)cc1` (stereo not shown) [Example 22, 2-(1H-indazol-4-yl)-5-(4-(methylsulfonyl)benzyl)-5,6,6a,7,9,10-hexahydro-[1,4]oxazino[3,4-h]pteridine], the IC50 was 20 nM.

As for `CS(=O)(=O)c1ccc(CN2CC3COCCN3c3nc(-c4cncc5[nH]ccc45)ncc32)cc1` (stereo not shown) [Example 23, 5-(4-(methylsulfonyl)benzyl)-2-(1H-pyrrolo[2,3-c]pyridin-4-yl)-5,6,6a,7,9,10-hexahydro-[1,4]oxazino[3,4-h]pteridine], the IC50 was 5.01 nM. Take `CS(=O)(=O)c1ccc(CN2CC3COCCN3c3nc(-c4cnc5cc[nH]c5c4)ncc32)cc1` (stereo not shown) [Example 24, 5-(4-(methylsulfonyl)benzyl)-2-(1H-pyrrolo[3,2-b]pyridin-6-yl)-5,6,6a,7,9,10-hexahydro-[1,4]oxazino[3,4-h]pteridine]: the IC50 is 63.1 nM. As to `CS(=O)(=O)c1ccc(CN2CC3COCCN3c3nc(-c4cnc5[nH]ccc5c4)ncc32)cc1` (stereo not shown) [Example 25, 5-(4-(methylsulfonyl)benzyl)-2-(1H-pyrrolo[2,3-b]pyridin-5-yl)-5,6,6a,7,9,10-hexahydro-[1,4]oxazino[3,4-h]pteridine], the IC50 was 158 nM. Consider `Cc1nc(-c2cccc3[nH]ccc23)nc2c1N(Cc1ccc(S(C)(=O)=O)cc1)CC1COCCN21` (stereo not shown) [Example 26, 2-(1H-indol-4-yl)-4-methyl-5-(4-(methylsulfonyl)benzyl)-5,6,6a,7,9,10-hexahydro-[1,4]oxazino[3,4-h]pteridine], for which the IC50 was 251 nM. For the compound `Cc1nc(-c2cccc3[nH]ccc23)nc2c1N(CC1CC1)CC1COCCN21` (stereo not shown) [Example 27, 5-(cyclopropylmethyl)-2-(1H-indol-4-yl)-4-methyl-5,6,6a,7,9,10-hexahydro-[1,4]oxazino[3,4-h]pteridine], the IC50 was 251 nM. On to `CS(=O)(=O)c1ccc(CN2C[C@H]3COCCN3c3nc(-c4cccc5[nH]ccc45)ncc32)cc1` [Example 28, (S)-2-(1H-indol-4-yl)-5-(4-(methylsulfonyl)benzyl)-5,6,6a,7,9,10-hexahydro-[1,4]oxazino[3,4-h]pteridine], for which the IC50 was 631 nM. As to `CS(=O)(=O)c1ccc(CN2C[C@@H]3COCCN3c3nc(-c4cccc5[nH]ccc45)ncc32)cc1` [Example 29, (R)-2-(1H-indol-4-yl)-5-(4-(methylsulfonyl)benzyl)-5,6,6a,7,9,10-hexahydro-[1,4]oxazino[3,4-h]pteridine], the IC50 is 5.01 nM. In the case of `CS(=O)(=O)c1ccc(CN2C[C@@H]3COCCN3c3nc(-c4cncc5[nH]ccc45)ncc32)cc1` [Example 30, (R)-5-(4-(methylsulfonyl)benzyl)-2-(1H-pyrrolo[2,3-c]pyridin-4-yl)-5,6,6a,7,9,10-hexahydro-[1,4]oxazino[3,4-h]pteridine], the IC50 is 1.26 nM.

Turning to `CCc1nnc(CN2C[C@@H]3COCCN3c3nc(-c4cccc5[nH]ccc45)ncc32)o1` [Example 31, (R)-5-((5-ethyl-1,3,4-oxadiazol-2-yl)methyl)-2-(1H-indol-4-yl)-5,6,6a,7,9,10-hexahydro-[1,4]oxazino[3,4-h]pteridine], the IC50 was 7.94 nM. To `c1ccc(OCCN2CC3COCCN3c3nc(-c4cccc5[nH]ccc45)ncc32)cc1` (stereo not shown) [Example 32, 2-(1H-indol-4-yl)-5-(2-phenoxyethyl)-5,6,6a,7,9,10-hexahydro-[1,4]oxazino[3,4-h]pteridine] belongs 79.4 nM; to `c1csc(-c2nnc(CN3CC4COCCN4c4nc(-c5cccc6[nH]ccc56)ncc43)o2)c1` (stereo not shown) [Example 33, 2-(1H-indol-4-yl)-5-((5-(thiophen-2-yl)-1,3,4-oxadiazol-2-yl)methyl)-5,6,6a,7,9,10-hexahydro-[1,4]oxazino[3,4-h]pteridine], 12.6 nM. With `O=C(CCN1CC2COCCN2c2nc(-c3cccc4[nH]ccc34)ncc21)NCc1ccco1` (stereo not shown) [Example 34, 3-(2-(1H-indol-4-yl)-6a,7,9,10-tetrahydro-[1,4]oxazino[3,4-h]pteridin-5(6H)-yl)-N-(furan-2-ylmethyl)propanamide], the IC50 was 12.6 nM. For `CCc1nnc(CN2CC3COCCN3c3nc(-c4cccc5[nH]ccc45)ncc32)o1` (stereo not shown) [Example 35, 5-((5-ethyl-1,3,4-oxadiazol-2-yl)methyl)-2-(1H-indol-4-yl)-5,6,6a,7,9,10-hexahydro-[1,4]oxazino[3,4-h]pteridine], the IC50 was 10 nM. On to `c1cc(-c2ncc3c(n2)N2CCOCC2CN3Cc2nnnn2C2CC2)c2cc[nH]c2c1` (stereo not shown) [Example 36, 5-((1-cyclopropyl-1H-tetrazol-5-yl)methyl)-2-(1H-indol-4-yl)-5,6,6a,7,9,10-hexahydro-[1,4]oxazino[3,4-h]pteridine], for which the IC50 is 126 nM. For `c1ccc(-c2nc(CN3CC4COCCN4c4nc(-c5cccc6[nH]ccc56)ncc43)co2)cc1` (stereo not shown) [Example 37, 2-(1H-indol-4-yl)-5-((2-phenyloxazol-4-yl)methyl)-5,6,6a,7,9,10-hexahydro-[1,4]oxazino[3,4-h]pteridine], the IC50 is 316 nM. Regarding `c1ccc(-c2nnc(CN3CC4COCCN4c4nc(-c5cccc6[nH]ccc56)ncc43)o2)cc1` (stereo not shown) [Example 38, 2-(1H-indol-4-yl)-5-((5-phenyl-1,3,4-oxadiazol-2-yl)methyl)-5,6,6a,7,9,10-hexahydro-[1,4]oxazino[3,4-h]pteridine], the IC50 was 12.6 nM. Take `c1cc(-c2ncc3c(n2)N2CCOCC2CN3Cc2ncco2)c2cc[nH]c2c1` (stereo not shown) [Example 39, 2-(1H-indol-4-yl)-5-(oxazol-2-ylmethyl)-5,6,6a,7,9,10-hexahydro-[1,4]oxazino[3,4-h]pteridine]: the IC50 is 20 nM. To `c1ccc(-n2cc(CN3CC4COCCN4c4nc(-c5cccc6[nH]ccc56)ncc43)nn2)cc1` (stereo not shown) [Example 40] belongs 15.8 nM; to `Cc1ccccc1CNC(=O)CN1CC2COCCN2c2nc(-c3cccc4[nH]ccc34)ncc21` (stereo not shown) [Example 41, 2-(2-(1H-indol-4-yl)-6a,7,9,10-tetrahydro-[1,4]oxazino[3,4-h]pteridin-5(6H)-yl)-N-(2-methylbenzyl)acetamide], 31.6 nM; to `CC(C)NC(=O)CN1CC2COCCN2c2nc(-c3cccc4[nH]ccc34)ncc21` (stereo not shown) [Example 42, 2-(2-(1H-indol-4-yl)-6a,7,9,10-tetrahydro-[1,4]oxazino[3,4-h]pteridin-5(6H)-yl)-N-isopropylacetamide], 501 nM. Under `CN(C)C(=O)CN1CC2COCCN2c2nc(-c3cccc4[nH]ccc34)ncc21` (stereo not shown) [Example 43, 2-(2-(1H-indol-4-yl)-6a,7,9,10-tetrahydro-[1,4]oxazino[3,4-h]pteridin-5(6H)-yl)-N,N-dimethylacetamide] stands 398 nM; under `CC(C)N(C)C(=O)CN1CC2COCCN2c2nc(-c3cccc4[nH]ccc34)ncc21` (stereo not shown) [Example 44, 2-(2-(1H-indol-4-yl)-6a,7,9,10-tetrahydro-[1,4]oxazino[3,4-h]pteridin-5(6H)-yl)-N-isopropyl-N-methylacetamide], 316 nM; under `N#Cc1ccccc1CN1CC2COCCN2c2nc(-c3cccc4[nH]ccc34)ncc21` (stereo not shown) [Example 45, 2-((2-(1H-indol-4-yl)-6a,7,9,10-tetrahydro-[1,4]oxazino[3,4-h]pteridin-5(6H)-yl)methyl)benzonitrile], 251 nM.

For `N#Cc1ccc(F)cc1CN1CC2COCCN2c2nc(-c3cccc4[nH]ccc34)ncc21` (stereo not shown) [Example 46, 2-((2-(1H-indol-4-yl)-6a,7,9,10-tetrahydro-[1,4]oxazino[3,4-h]pteridin-5(6H)-yl)methyl)-4-fluorobenzonitrile], the IC50 is 316 nM.
